Consider 2 molecules from article PMC7614227, “Structural Basis of Mammalian Respiratory Complex I Inhibition by Medicinal Biguanides” (Science (New York, N.Y.), 2023).

What is called IC50 is the point on the concentration scale where inhibition reaches its midpoint.

For assay [1], the target named is T1, complex I catalysis in bovine heart mitochondrial membranes (Bos taurus, UniProt P03887+P03898+P17694+P42026).
T1 construct: Fresh cow hearts were purchased from an abattoir; tissue C; Humphreys and Sons, Chelmsford, U.K. (abattoir); host or cells: bovine heart mitochondrial membranes
Nature of the assay: NADH:O2 oxidoreduction by bovine heart mitochondrial membranes. Type of assay: biochemical.

Assay [2] deals with T2, detergent-solubilized, purified bovine complex I (Bos taurus, UniProt P03887+P03898+P17694+P42026).
T2 construct: from tissue; host or cells: bovine heart mitochondrial membranes, solubilized in DDM, Q-Sepharose and Superose 6 chromatography
Nature of the assay: NADH:decylubiquinone (NADH:DQ) oxidoreduction by purified complex I. Type of assay: biochemical. The method, then:
(§1) and filtered (0.2 µM). The complexes were then separated by ion-exchange chromatography (Q-
(§2) Sepharose, GE Healthcare, as described previously (62)) and complex I-containing fractions
(§3) pooled and concentrated using a 50 kDa MWCO spin column (Merck Millipore). The samples
(§4) were clarified using a Spin-X 0.22 µm centrifugal filter (Corning) then applied to a Superose 6
(§5) Increase 5/150 (inhibitor-free dataset) or 10/300 column (biguanide-inhibited dataset) (GE
(§6) Healthcare) and eluted in 20 mM Tris-HCl (pH 7.14 at 20 ° C), 150 mM NaCl and 0.05% DDM.
(§7) Complex I elutes as a monodisperse peak at ~ 1.6 or 13 mL from the superose 6 increase 5/150 or
(§8) 10/300 columns, respectively (Fig. S3). The peak fractions for the biguanide-inhibited dataset were
(§9) concentrated using a 50 kDa MWCO spin column (Merck Millipore) and the protein concentration
(§10) quantified using a nanodrop UV-vis spectrophotometer (e280 = 0.2 mg-1 mL); IM1092 was then […]
(§11) µg of purified complex I was reduced with 10 mM dithiothreitol and analyzed on a Novex Tris- […]
(§12) NADH:O2 oxidoreduction by membranes was measured at 10 µg-protein mL-1 using 200 μM […]
(§13) assays. NADH:decylubiquinone (NADH:DQ) oxidoreduction by complex I was measured at 0.5 […]
(§14) measured by linear regression of the maximal slope and quantified by the absorbance of NADH at […]
(§15) was determined to evaluate the active/deactive ratio by incubating the membranes (2 mg-protein […]

For another assay, the system named is HEPG2 C3A cells. Nature of the assay: Cellular oxygen consumption (Seahorse XFe96, rotenone-sensitive OCR). The class given is cell-based. Here is the method:
from the weighed sample (1.15 mg) and solvent (0.78956g) masses of 4.31 mM, implying a purity of 93%. The proton NMR spectrum is consistent with the presented chemical structure and with the described shifts for this compound (27). The shifts observed here were ¹H NMR (DMSO, 400 […]
Cellular oxygen consumption measurements
HEPG2 C3A (ATCC CRL10741) cells were a kind gift from AstraZeneca and were authenticated by STR profiling (Eurofins). Cells were grown in Dulbecco's modified Eagle's medium (DMEM, Thermo Fisher Scientific) containing 10 mM glucose supplemented with 10% fetal bovine serum (Thermo Fisher Scientific) at 37 °C in 5% CO2. Per well, 2×10^4 cells were plated into an XFe96 (Agilent) cell plate and incubated for 24 h at 37 °C in 5% CO2. […] OCRs (oxygen consumption rates) were measured in a XFe96 Seahorse extracellular flux analyzer; 2 μM rotenone was used to inhibit complex I at the end of the assay. To calculate the normalized rotenone-sensitive OCR rates, the rotenone-insensitive rates (determined at the end of the experiment) were subtracted, and the traces normalized to 100% at the measurement before IM1092 addition. […] IC50 values were calculated using the normalized rates, following 6 hours of incubation […]

The subject of assay [3] is T3, complex I in bovine heart mitochondrial membranes.
T3 construct: Fresh cow hearts were purchased from an abattoir; tissue C; Humphreys and Sons, Chelmsford, U.K. (abattoir); host or cells: bovine heart mitochondrial membranes
Nature of the assay: NEM sensitivity of NADH:O2 activity (active/deactive ratio). The class given is biochemical. Conditions: as-prepared membranes incubated with 200 μM IM1092 and NEM at 4 °C. The method, then:
as §1, §2, §3, §4, §5, §6, §7, §8, §9, §10, §11, §12, §13, §14, §15

In assay [4] the test system is mitochondrial glycerophosphate dehydrogenase (mGPD). Conditions: cited from earlier work.
The mark [5] stands for this setting: Fig. 1B, membranes of differing deactive complex I content, 1st labelled value (deactive content not given).
[6] abbreviates: Fig. 1B, membranes of differing deactive complex I content, 2nd labelled value (deactive content not given).
The mark [7] stands for this setting: Fig. 1B, membranes of differing deactive complex I content, 3rd labelled value (deactive content not given).
Where [8] appears, read: Fig. 1C, pH 9D(i): pH 9 deactivated membranes with antimycin A and AOX.
Where [9] appears, read: Fig. 1C, pH 9D: pH 9 deactivated membranes.

Regarding `N=C(N=C(N)N)NCCc1ccc(I)c(Cl)c1` [IM1092], the half-inhibitory concentration (IC50) was determined as 32 µM in assay [1] (setting [5]); 20 µM in assay [1] (setting [6]); 4 µM in assay [1] (setting [7]); 43 µM in assay [1] (Fig. 1C, pH 6); 27 µM in assay [1] (Fig. 1C, pH 7); 21 µM in assay [1] (Fig. 1C, pH 8). Moreover, the IC50 in assay [1] (Fig. 1C, pH 9) came to 4 µM; in assay [1] (setting [8]), 0.816 µM; in assay [1] (setting [9]), 0.846 µM; in assay [2] (catalysis of detergent-solubilized, purified bovine complex I (NADH:DQ)), 86 µM. Also, the “control catalytic rate recovered after dilution into inhibitor-free assay buffer” value in assay [2] (complex I incubated with 350 μM IM1092 as for cryo-EM grids, then diluted, reversibility) was 98%. Also, the “effect on cellular oxygen consumption” value with HEPG2 C3A cells was “inhibits cellular oxygen consumption”. The “deactive content of membranes” value in assay [3] is listed as “essentially the same deactive content as biguanide-free controls”.
In the case of `CN(C)C(=N)N=C(N)N` [Metformin, metformin, reference compound], the half-maximal inhibitory concentration (IC50) in assay [1] (setting [5]) was 99000 µM; in assay [1] (setting [6]), 52000 µM; in assay [1] (setting [7]), 33000 µM; in assay [1] (Fig. 1C, pH 8), 38000 µM; in assay [1] (Fig. 1C, pH 9), 9000 µM; in assay [1] (setting [8]), 8000 µM. This molecule also yielded a half-maximal inhibitory concentration (IC50) in assay [1] (setting [9]) of 15000 µM. Also, the “inhibition of human mGPD” value in assay [4] is recorded as “not to inhibit”.
